Results on one substance are retold here after paper PMC11940343, “In Vitro and In Vivo Evaluation of the De Novo Designed Antimicrobial Peptide P6.2 Against a KPC-Producing P. aeruginosa Clinical Isolate” (Biomolecules, 2025).

No end group written: not given here.

In series [1] the test system is P. aeruginosa M13513. Description: Peptide stability at different temperatures, read out by broth microdilution MIC. Set-up: unit not given beside the values. The note with it: peptide in sterile deionized water, then broth microdilution vs P. aeruginosa M13513. In kind it is physicochemical, Pseudomonas aeruginosa. On the procedure: (§1) To analyze the stability of the molecule, the peptide was exposed to different temperatures for varying durations. The conditions tested involved incubation at 37 °C for 24 h, at 60 °C for 2 h, and at 100 °C for 15 min. Each condition was set up in a microtube with the peptide dissolved in sterile deionized water. As a control, the peptide was dissolved immediately before testing without temperature incubation. Afterward, the broth microdilution assay was conducted to assess its antimicrobial effectiveness. Additionally, the stability of the peptide in serum was examined. Three microtubes were prepared, each containing sterile deionized water with FCBS (fetal calf bovine serum) 25% (v/v) and the antimicrobial peptide. Two of these samples were incubated at 37 °C for 24 h or 2 h, while the third sample was prepared just before testing without any temperature incubation. As controls, serum alone and peptide without serum were used. The antimicrobial activity was subsequently evaluated through the broth microdilution assay. In order to assess the stability of the AMP, P6.2 was incubated at different temperature conditions or with FBS (fetal bovine serum) for different time periods. The temperature exposures were overnight (ON) at 37 °C, 120 min at 60 °C, and 15 min at 100 °C. P6.2 was incubated with 25% FBS at 37 °C for 2 and 24 h before the experiment or directly at the moment of the experiment. Then, a microdilution assay was performed to test the antimicrobial activity.

Series [2] relates to P. aeruginosa M13513. Description: Galleria mellonella larval infection model. Type of series: in vivo. From the text:
Lepidoptera were reared in the laboratory in a standardized manner. A breeding colony was established, and the different stages of the insect’s life cycle were documented. Adult insects were housed in a plastic container without access to food, allowing for the collection of eggs. Then, eggs and larvae were placed in containers with fresh food, prepared from autoclaved wheat bran (50%), dry yeast (5%), beeswax (6%), honey (26%), and glycerin (13%). In each growth cycle, a pool of larvae was reserved to progress to pupa and adult generation. The larvae and eggs were kept at room temperature during the warm seasons and in an oven with humidity control at 30 °C during the cold seasons. For each experiment, a group of late-stage caterpillars was set aside and kept in the dark at a temperature of 10–12 °C, ensuring their use within one week of collection. For the in vivo tests, larvae of approximately 2 cm in length and an average weight of 250 mg were used. This average weight was used to calculate the antimicrobial doses. The bacterial inoculum used in the larval infection models was prepared from an ON culture, which was washed twice with physiological saline solution and adjusted by measuring OD600nm. […] The larvae were incubated at 37 °C, and their survival was monitored for five days.

Series [3] relates to P. aeruginosa strain PA01. The settings on record: mice challenged with P. aeruginosa PA01; ref previous work; cited from earlier work. From the text:
The antimicrobial peptide P6.2 was previously de novo designed as an alpha helix cationic amphipathic molecule. […] In this work, the peptide P6.2 antimicrobial activity and its possible synergy with ...

Series [4] deals with P. aeruginosa M13513. Description: Inhibition of biofilm formation (crystal violet). In kind it is cell-based, Pseudomonas aeruginosa. The note with it: sub-MIC concentrations (1/8 to 1/2 of the MIC), 24 h. On the procedure:
The assessment of biofilm inhibition was carried out using 96-well flat-bottom polystyrene plates. Antimicrobial agents were diluted in Mueller–Hinton broth through a two-fold serial dilution and subsequently inoculated with a fresh bacterial culture to obtain a final concentration of 5 × 10^5 CFU/mL, with a total well volume of 100 µL. The plates were then incubated at 37 °C for 24 h. Bacteria cultured without the peptide served as the control. To evaluate biofilm formation following peptide exposure, the supernatant was carefully removed, and the wells were washed twice with 100 µL of saline solution to eliminate any non-adherent cells. The remaining biofilm was fixed by adding 100 µL of methanol for 15 min, followed by staining with 100 µL of 1% (v/v) crystal violet ( Sigma-Aldrich, Massachusetts, USA) for 5 min. After staining, the excess dye was discarded, and the wells were rinsed twice with 200 µL of distilled water before allowing the plate to dry at 37 °C for 30 min. Finally, 100 µL of 33% acetic acid was added to each well, and the samples were homogenized by gentle agitation. The absorbance was then measured at 595 nm using a microplate reader (RT2100, Rayto Life and Analytical Sciences Co., Ltd., Shenzhen, China).

Series [5] concerns P. aeruginosa M13513. On the procedure: as §1, with “P6.2 was incubated with 25% FBS at 37 °C for 2 and 24 h before the experiment or directly at the moment of the experiment. Then, a microdilution assay was performed to test the antimicrobial activity.” left out

Consider GLLRKWGKKWKEFLRRVWK-NH2 [Peptide P6.2], for which the “MIC after temperature exposure” value in the series on P. aeruginosa M13513 [1] (37 °C ON (24 h)), in the series with P. aeruginosa M13513 [1] (60 °C 120 min) and in the series with P. aeruginosa M13513 [1] (100 °C 15 min) was 32/64 each time. Also, the “survival compared with meropenem 2.5 alone (log-rank test)” value in the series with P. aeruginosa M13513 [2] (P6.2 5 + Mer 2.5 vs Mer 2.5) is recorded as “not significative differences”. In addition, in the series with P. aeruginosa M13513 [2] (peptide alone, 2.5-80 mg/kg single injection 1 h post infection, 10^3 CFU/larva, n = 10, 5 days), the “prevention of larvae death” value is reported as “not effective”. For the same substance, the “effect in murine acute lung infection model” value in series [3] was “anti-inflammatory effects”. Besides, the biofilm inhibitory activity result with P. aeruginosa M13513 [4] is listed as “did not show anti-biofilm activity”. In the series on P. aeruginosa M13513 [5], the “reduction of antimicrobial activity after serum incubation” value is given as “two-fold dilution”.
